From ChEMBL document CHEMBL1201862, “PubChem BioAssay data set” (2004)
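These data come from cells grown in 96-well plates and exposed to compound for 48 hours at five concentrations. At the GI50, growth is halved.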 The source made the active and inactive calls. No stated cut-off is given here; in the data, active = GI50 up to about 1.1 µM and inactive = higher.

Key:
Assay in all cases: NCI tumour cell line growth inhibition, 48 h
EKVX = test system: EKVX
MOLT-4 = test system: MOLT-4
A549 = test system: A549
UACC-257 = test system: UACC-257
UACC-62 = test system: UACC-62
SF-268 = test system: SF-268
MDA-MB-435 = test system: MDA-MB-435
RPMI-8226 = test system: RPMI-8226
TK-10 = test system: TK-10
T47D = test system: T47D
MDA-MB-231 = test system: MDA-MB-231
HCC 2998 = test system: HCC 2998
SF-539 = test system: SF-539
ACHN = test system: ACHN
DU-145 = test system: DU-145
OVCAR-8 = test system: OVCAR-8
K562 = test system: K562
NCI-H23 = test system: NCI-H23
KM12 = test system: KM12
SK-MEL-5 = test system: SK-MEL-5
Malme-3M = test system: Malme-3M
LOX IMVI = test system: LOX IMVI
786-0 = test system: 786-0
NCI-H522 = test system: NCI-H522
UO-31 = test system: UO-31
SF-295 = test system: SF-295
HCT-116 = test system: HCT-116
SNB-19 = test system: SNB-19
PC-3 = test system: PC-3
M14 = test system: M14
COLO 205 = test system: COLO 205
OVCAR-5 = test system: OVCAR-5
BT-549 = test system: BT-549
U-251 = test system: U-251
SW-620 = test system: SW-620
MCF7 = test system: MCF7
RXF 393 = test system: RXF 393
HT-29 = test system: HT-29
NCI/ADR-RES = test system: NCI/ADR-RES
CCRF-CEM = test system: CCRF-CEM
SR = test system: SR
CAKI-1 = test system: CAKI-1
SK-MEL-28 = test system: SK-MEL-28
MDA-N = test system: MDA-N
HL-60 = test system: HL-60
A498 = test system: A498
SK-MEL-2 = test system: SK-MEL-2
Hs-578T = test system: Hs-578T
HCT-15 = test system: HCT-15
OVCAR-3 = test system: OVCAR-3
IGROV-1 = test system: IGROV-1
HOP-92 = test system: HOP-92
SK-OV-3 = test system: SK-OV-3
NCI-H460 = test system: NCI-H460
HOP-62 = test system: HOP-62
SNB-75 = test system: SNB-75
NCI-H226 = test system: NCI-H226
SN12C = test system: SN12C
OVCAR-4 = test system: OVCAR-4

SMILES: COc1ccc(Nc2nc3ccccc3n3cccc23)cc1OC
- GI50 (EKVX): 25.7 µM (inactive)
- GI50 (MOLT-4): 9.98 µM (inactive)
- GI50 (A549): 17.5 µM (inactive)
- GI50 (UACC-257): 16 µM (inactive)
- GI50 (UACC-62): 14.3 µM (inactive)
- GI50 (SF-268): 21.9 µM (inactive)
- GI50 (MDA-MB-435): 13.8 µM (inactive)
- GI50 (RPMI-8226): 11.8 µM (inactive)
- GI50 (TK-10): 16.5 µM (inactive)
- GI50 (T47D): 4.06 µM (inactive)
- GI50 (MDA-MB-231): 15.3 µM (inactive)
- GI50 (HCC 2998): 14.4 µM (inactive)
- GI50 (SF-539): 16.6 µM (inactive)
- GI50 (ACHN): 21 µM (inactive)
- GI50 (DU-145): 17.1 µM (inactive)
- GI50 (OVCAR-8): 15.9 µM (inactive)
- GI50 (K562): 21 µM (inactive)
- GI50 (NCI-H23): 14.8 µM (inactive)
- GI50 (KM12): 13.1 µM (inactive)
- GI50 (SK-MEL-5): 11.9 µM (inactive)
- GI50 (Malme-3M): 18.9 µM (inactive)
- GI50 (LOX IMVI): 14.4 µM (inactive)
- GI50 (786-0): 15.4 µM (inactive)
- GI50 (NCI-H522): 16 µM (inactive)
- GI50 (UO-31): 19.5 µM (inactive)
- GI50 (SF-295): 13.2 µM (inactive)
- GI50 (HCT-116): 16.9 µM (inactive)
- GI50 (SNB-19): 33.7 µM (inactive)
- GI50 (PC-3): 11.7 µM (inactive)
- GI50 (M14): 15.8 µM (inactive)
- GI50 (COLO 205): 14.4 µM (inactive)
- GI50 (OVCAR-5): 32.7 µM (inactive)
- GI50 (BT-549): 18.5 µM (inactive)
- GI50 (U-251): 16.9 µM (inactive)
- GI50 (SW-620): 16.2 µM (inactive)
- GI50 (MCF7): 16.1 µM (inactive)
- GI50 (RXF 393): 12.9 µM (inactive)
- GI50 (HT-29): 7.74 µM (inactive)
- GI50 (NCI/ADR-RES): 17.4 µM (inactive)
- GI50 (CCRF-CEM): 1.05 µM (active)
- GI50 (SR): 12.8 µM (inactive)
- GI50 (CAKI-1): 25.2 µM (inactive)
- GI50 (SK-MEL-28): 15.1 µM (inactive)
- GI50 (MDA-N): 15.9 µM (inactive)
- GI50 (HL-60): 0.0528 µM (active)
- GI50 (A498): 17.9 µM (inactive)
- GI50 (SK-MEL-2): 19.2 µM (inactive)
- GI50 (Hs-578T): 37.9 µM (inactive)
- GI50 (HCT-15): 13.6 µM
- GI50 (OVCAR-3): 19.1 µM (inactive)
- GI50 (IGROV-1): 20.9 µM (inactive)
- GI50 (HOP-92): 34.4 µM (inactive)
- GI50 (SK-OV-3): 27 µM (inactive)
- GI50 (NCI-H460): 12.9 µM (inactive)
- GI50 (HOP-62): 16.3 µM (inactive)

SMILES: O=C(/C=C/c1ccc(-c2ccccc2)cc1)NCc1ccc(C(=O)NCCc2c[nH]c3ccccc23)cc1
- GI50 (EKVX): 34.2 µM (inactive)
- GI50 (MOLT-4): 16.6 µM (inactive)
- GI50 (A549): 19.4 µM (inactive)
- GI50 (UACC-257): 67.3 µM (inactive)
- GI50 (UACC-62): 29 µM (inactive)
- GI50 (SF-268): 39.7 µM (inactive)
- GI50 (MDA-MB-435): > 100 µM (inactive)
- GI50 (RPMI-8226): 60.8 µM (inactive)
- GI50 (TK-10): 26.2 µM (inactive)
- GI50 (T47D): 22 µM (inactive)
- GI50 (MDA-MB-231): 14.6 µM (inactive)
- GI50 (HCC 2998): 83.4 µM (inactive)
- GI50 (SF-539): 43.5 µM (inactive)
- GI50 (ACHN): 35.8 µM (inactive)
- GI50 (DU-145): > 100 µM (inactive)
- GI50 (OVCAR-8): 13.6 µM (inactive)
- GI50 (K562): 21.5 µM (inactive)
- GI50 (NCI-H23): 22.1 µM (inactive)
- GI50 (KM12): 31 µM (inactive)
- GI50 (SK-MEL-5): 26 µM (inactive)
- GI50 (Malme-3M): 33.4 µM (inactive)
- GI50 (LOX IMVI): 48.9 µM (inactive)
- GI50 (786-0): 11.1 µM (inactive)
- GI50 (NCI-H522): 21.3 µM (inactive)
- GI50 (UO-31): 26.7 µM (inactive)
- GI50 (SF-295): 11.1 µM (inactive)
- GI50 (HCT-116): 46.9 µM (inactive)
- GI50 (SNB-19): 21.7 µM (inactive)
- GI50 (PC-3): 23.5 µM (inactive)
- GI50 (M14): 80.9 µM (inactive)
- GI50 (SNB-75): 11.2 µM (inactive)
- GI50 (COLO 205): > 100 µM (inactive)
- GI50 (OVCAR-5): 11.5 µM (inactive)
- GI50 (BT-549): 37.2 µM (inactive)
- GI50 (U-251): 11.9 µM (inactive)
- GI50 (SW-620): 34 µM (inactive)
- GI50 (MCF7): 89.9 µM (inactive)
- GI50 (RXF 393): 19.8 µM (inactive)
- GI50 (HT-29): 11.5 µM (inactive)
- GI50 (NCI/ADR-RES): 60 µM (inactive)
- GI50 (CCRF-CEM): 13.9 µM (inactive)
- GI50 (NCI-H226): 24.4 µM (inactive)
- GI50 (SR): 21 µM (inactive)
- GI50 (CAKI-1): 16.3 µM (inactive)
- GI50 (SK-MEL-28): 39.7 µM (inactive)
- GI50 (MDA-N): 49.2 µM (inactive)
- GI50 (A498): 32.8 µM (inactive)
- GI50 (SK-MEL-2): 33.5 µM (inactive)
- GI50 (Hs-578T): 38.5 µM (inactive)
- GI50 (HCT-15): > 100 µM
- GI50 (OVCAR-3): 28.9 µM (inactive)
- GI50 (SN12C): 5.08 µM (inactive)
- GI50 (IGROV-1): 11.4 µM (inactive)
- GI50 (OVCAR-4): 14.8 µM (inactive)
- GI50 (HOP-92): 20.1 µM (inactive)
- GI50 (SK-OV-3): 14.5 µM (inactive)
- GI50 (NCI-H460): 31.7 µM (inactive)
- GI50 (HOP-62): 9.14 µM (inactive)
